Laboratory results reported in PMC10726367 (Journal of Medicinal Chemistry, 2023).

Key:
RyR2 = target: T1, RyR2 (Mus musculus, UniProt E9Q401); assay: Time-lapse [Ca2+]ER assay (RyR2 R-CEPIA1er assay) in HEK-293 cells with inducible WT RyR2; assay type: cell-based; conditions: for RyR2 effect class: 25 μM (S107 1 mM per Figure 2); for RyR2 effect class / EC50: HEK-293 RyR2 R-CEPIA1er cells; for EC50: value, interval; for effect on [Ca2+]ER / R-CEPIA1er fluorescence (F/F0): 25 μM, vs 0.1 v/v% DMSO
T1 construct: expressed in transfected cells; host or cells: HEK-293 cells stably expressing R-CEPIA1er with doxycycline-inducible WT RyR2
T1 sequence (E9Q401 whole entry): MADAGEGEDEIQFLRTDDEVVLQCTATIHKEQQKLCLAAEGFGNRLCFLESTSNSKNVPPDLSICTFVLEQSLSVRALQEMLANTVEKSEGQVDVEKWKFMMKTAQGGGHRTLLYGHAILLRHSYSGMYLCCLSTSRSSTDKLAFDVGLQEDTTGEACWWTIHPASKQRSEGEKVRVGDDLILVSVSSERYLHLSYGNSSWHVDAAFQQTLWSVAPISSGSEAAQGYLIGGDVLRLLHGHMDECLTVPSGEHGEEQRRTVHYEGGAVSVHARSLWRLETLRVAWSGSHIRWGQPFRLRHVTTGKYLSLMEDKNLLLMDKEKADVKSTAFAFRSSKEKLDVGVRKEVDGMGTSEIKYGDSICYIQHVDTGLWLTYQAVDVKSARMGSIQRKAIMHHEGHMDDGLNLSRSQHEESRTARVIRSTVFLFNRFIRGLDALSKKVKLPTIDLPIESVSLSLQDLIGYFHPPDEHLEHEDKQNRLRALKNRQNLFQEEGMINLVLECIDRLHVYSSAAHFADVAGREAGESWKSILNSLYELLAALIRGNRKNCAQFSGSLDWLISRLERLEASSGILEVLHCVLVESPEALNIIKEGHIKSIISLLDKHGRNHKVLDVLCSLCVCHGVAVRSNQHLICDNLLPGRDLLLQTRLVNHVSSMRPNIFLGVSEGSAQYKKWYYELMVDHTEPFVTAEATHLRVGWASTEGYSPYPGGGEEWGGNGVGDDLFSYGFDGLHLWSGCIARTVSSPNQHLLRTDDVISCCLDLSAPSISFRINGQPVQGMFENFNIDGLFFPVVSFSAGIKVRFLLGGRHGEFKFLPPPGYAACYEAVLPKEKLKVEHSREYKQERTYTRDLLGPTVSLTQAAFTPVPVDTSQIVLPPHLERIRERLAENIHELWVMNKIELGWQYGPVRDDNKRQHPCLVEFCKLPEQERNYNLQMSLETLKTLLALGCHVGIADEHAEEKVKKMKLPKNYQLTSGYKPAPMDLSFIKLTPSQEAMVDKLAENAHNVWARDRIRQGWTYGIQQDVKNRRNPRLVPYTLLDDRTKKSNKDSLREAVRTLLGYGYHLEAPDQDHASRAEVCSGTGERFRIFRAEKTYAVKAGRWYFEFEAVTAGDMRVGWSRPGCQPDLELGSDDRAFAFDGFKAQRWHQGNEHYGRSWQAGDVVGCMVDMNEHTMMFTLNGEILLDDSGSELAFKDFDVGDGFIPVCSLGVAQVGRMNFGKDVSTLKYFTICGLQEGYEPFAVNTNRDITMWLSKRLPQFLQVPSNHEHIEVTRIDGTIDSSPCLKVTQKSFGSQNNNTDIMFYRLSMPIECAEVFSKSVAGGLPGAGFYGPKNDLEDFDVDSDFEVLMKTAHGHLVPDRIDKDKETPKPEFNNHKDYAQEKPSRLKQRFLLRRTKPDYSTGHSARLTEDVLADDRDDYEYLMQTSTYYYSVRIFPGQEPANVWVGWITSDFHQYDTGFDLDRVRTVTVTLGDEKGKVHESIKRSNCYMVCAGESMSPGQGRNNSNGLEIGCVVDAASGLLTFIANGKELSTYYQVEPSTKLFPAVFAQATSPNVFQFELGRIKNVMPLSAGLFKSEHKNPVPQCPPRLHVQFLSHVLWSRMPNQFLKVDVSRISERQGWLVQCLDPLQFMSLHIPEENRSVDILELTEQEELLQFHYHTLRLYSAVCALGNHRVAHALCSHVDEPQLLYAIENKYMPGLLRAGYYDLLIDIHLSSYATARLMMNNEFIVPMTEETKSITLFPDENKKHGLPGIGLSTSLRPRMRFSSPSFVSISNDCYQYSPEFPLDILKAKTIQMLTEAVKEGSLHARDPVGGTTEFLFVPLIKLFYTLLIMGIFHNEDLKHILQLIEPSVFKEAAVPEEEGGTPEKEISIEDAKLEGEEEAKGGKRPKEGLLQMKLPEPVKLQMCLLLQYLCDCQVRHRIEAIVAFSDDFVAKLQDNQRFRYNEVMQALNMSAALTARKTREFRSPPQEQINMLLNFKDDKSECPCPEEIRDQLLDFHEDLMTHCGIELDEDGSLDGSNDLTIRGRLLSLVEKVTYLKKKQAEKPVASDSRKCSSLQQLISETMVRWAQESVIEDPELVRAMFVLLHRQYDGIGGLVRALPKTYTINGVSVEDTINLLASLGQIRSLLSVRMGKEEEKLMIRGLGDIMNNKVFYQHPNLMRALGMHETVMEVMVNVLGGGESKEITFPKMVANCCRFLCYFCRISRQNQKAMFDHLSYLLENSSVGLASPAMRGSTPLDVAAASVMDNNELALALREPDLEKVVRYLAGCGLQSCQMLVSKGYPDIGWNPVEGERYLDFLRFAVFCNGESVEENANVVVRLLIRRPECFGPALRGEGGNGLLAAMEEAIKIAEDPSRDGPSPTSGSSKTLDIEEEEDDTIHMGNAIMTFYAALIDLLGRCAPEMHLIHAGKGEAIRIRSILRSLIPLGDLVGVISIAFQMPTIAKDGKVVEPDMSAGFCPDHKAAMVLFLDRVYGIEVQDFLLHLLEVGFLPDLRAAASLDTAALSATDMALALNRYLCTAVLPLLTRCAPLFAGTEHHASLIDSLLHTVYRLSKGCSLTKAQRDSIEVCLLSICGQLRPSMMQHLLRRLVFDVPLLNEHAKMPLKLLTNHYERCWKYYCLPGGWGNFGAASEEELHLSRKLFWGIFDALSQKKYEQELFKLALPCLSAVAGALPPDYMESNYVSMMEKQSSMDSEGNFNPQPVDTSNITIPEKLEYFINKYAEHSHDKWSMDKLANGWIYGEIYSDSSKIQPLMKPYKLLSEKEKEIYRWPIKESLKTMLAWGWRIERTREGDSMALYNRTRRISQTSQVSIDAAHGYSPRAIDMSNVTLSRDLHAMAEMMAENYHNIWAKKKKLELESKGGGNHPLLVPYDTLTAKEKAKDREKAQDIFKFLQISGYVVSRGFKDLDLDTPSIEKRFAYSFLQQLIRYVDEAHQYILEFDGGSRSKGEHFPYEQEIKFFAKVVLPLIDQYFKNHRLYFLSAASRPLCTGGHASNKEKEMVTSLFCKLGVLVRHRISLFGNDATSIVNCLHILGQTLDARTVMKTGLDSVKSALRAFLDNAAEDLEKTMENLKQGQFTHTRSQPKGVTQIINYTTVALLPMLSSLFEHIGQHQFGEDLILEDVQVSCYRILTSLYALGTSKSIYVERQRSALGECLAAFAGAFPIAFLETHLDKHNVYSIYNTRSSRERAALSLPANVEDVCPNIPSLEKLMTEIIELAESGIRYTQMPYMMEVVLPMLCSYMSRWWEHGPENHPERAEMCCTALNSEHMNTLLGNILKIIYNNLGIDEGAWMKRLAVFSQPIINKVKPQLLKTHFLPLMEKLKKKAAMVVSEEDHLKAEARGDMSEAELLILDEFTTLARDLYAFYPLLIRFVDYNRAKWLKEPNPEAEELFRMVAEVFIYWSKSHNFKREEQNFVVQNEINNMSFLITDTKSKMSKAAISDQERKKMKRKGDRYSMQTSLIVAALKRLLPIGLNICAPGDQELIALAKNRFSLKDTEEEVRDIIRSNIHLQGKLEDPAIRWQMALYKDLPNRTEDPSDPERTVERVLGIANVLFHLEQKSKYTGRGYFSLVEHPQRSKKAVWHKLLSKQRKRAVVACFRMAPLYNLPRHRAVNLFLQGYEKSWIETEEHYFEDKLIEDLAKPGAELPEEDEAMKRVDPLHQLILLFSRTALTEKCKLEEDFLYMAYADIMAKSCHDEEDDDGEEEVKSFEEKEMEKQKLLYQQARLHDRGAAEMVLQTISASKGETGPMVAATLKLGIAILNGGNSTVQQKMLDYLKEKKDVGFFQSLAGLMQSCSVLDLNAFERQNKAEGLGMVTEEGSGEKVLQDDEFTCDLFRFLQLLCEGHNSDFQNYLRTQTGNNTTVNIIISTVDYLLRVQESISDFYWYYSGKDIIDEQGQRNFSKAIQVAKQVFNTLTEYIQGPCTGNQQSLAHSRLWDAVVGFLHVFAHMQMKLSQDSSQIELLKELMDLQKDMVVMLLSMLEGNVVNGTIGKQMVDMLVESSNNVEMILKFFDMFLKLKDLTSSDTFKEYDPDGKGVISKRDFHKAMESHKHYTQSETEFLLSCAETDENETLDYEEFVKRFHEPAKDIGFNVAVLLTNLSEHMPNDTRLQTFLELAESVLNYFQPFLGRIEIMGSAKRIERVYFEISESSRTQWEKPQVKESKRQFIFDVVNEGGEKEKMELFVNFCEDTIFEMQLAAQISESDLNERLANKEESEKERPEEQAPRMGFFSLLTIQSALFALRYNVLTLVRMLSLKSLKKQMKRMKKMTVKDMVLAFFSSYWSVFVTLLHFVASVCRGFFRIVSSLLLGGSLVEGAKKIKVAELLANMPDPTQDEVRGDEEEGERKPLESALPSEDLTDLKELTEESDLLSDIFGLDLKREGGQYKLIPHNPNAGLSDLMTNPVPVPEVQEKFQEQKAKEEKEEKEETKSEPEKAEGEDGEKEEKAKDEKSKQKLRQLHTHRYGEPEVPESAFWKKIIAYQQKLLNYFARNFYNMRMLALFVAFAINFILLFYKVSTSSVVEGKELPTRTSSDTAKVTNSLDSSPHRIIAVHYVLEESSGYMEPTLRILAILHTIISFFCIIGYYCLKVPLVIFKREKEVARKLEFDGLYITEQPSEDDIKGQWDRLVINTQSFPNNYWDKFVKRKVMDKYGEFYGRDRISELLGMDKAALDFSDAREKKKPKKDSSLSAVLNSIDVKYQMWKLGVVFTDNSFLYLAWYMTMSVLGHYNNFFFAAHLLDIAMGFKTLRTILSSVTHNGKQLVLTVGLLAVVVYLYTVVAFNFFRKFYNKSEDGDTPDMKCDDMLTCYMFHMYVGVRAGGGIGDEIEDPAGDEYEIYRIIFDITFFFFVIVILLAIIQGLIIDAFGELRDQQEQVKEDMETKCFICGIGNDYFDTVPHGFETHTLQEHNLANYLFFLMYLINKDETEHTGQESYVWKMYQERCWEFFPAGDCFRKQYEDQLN
Excerpt: To assess the functional potency of novel agents for modulating RyR2 channel activity, we measured changes in Ca^2+ levels in ER of HEK-293 cells with inducible expression of wild-type RyR2 (WT RyR2).[33],[34] Because the expression of WT RyR2 introduces an additional spontaneous Ca^2+ leak from the ER, these cells are suitable for our purpose of testing potential RyR2 stabilizers.[35] The cells additionally stably express the Ca^2+ fluorescence indicator R-CEPIA1er, which is a genetically encoded sensor protein of Ca^2+ in the ER (the cell line was a gift from T. Murayama, Department of Pharmacology, Juntendo University School of Medicine, Tokyo, Japan).[36]
The addition of these compounds, which are known to inhibit excessive cardiac RyR2 activity, should reduce Ca^2+ leak from the ER, thus increasing the R-CEPIA1er fluorescence.
The fluorescence plate reader [Ca^2+]ER assay was performed according to the slightly modified protocol of Murayama and Kurebayashi.[36] […] After the cells were inducted with doxycycline for 24 h, changes in ER calcium concentrations [Ca^2+]ER were measured on a multiwell plate reader TECAN Spark 20 M at 37 °C. The 1000 × stock solutions of the test compounds were prepared in DMSO. Briefly, the culture medium was removed and 100 μL of Tyrode’s solution containing 2 mM CaCl2 was added to the cells. The time courses were recorded in each well. Fluorescence was evoked by a 560 nm excitation wavelength and collected in a bottom-read mode at 610 nm. Data was recorded every 10 s, exposure −20 flashes, excitation bandwidth −20 nm, emission bandwidth −20 nm. 100 μL of 0–100 μM solution of test compound in Tyrode’s solution containing 2 mM CaCl2 was injected in each well (speed 100 μL/s) at the 90 s time point. […] The 0.1 v/v% DMSO and 2 mM CaCl2 Tyrode’s solution was used as a control.
The dose–response curves were calculated using the software package GraphPad Prism version 8.3.1. (GraphPad Software, Inc.). All data are presented as mean ± SD in three independent experiments. Y = bottom + (top – bottom)/(1 + 10^((LogEC50 – X) × HillSlope)) was used, where HillSlope describes the steepness of the curve, and top and bottom are plateaus in the units of the Y-axis.

SERCA2a = target: T2, SERCA2a (Mus musculus, UniProt O55143); assay: NADH-coupled ATPase assay on mouse heart ventricular SR microsomes (mouse SR); assay type: biochemical; conditions: for SERCA2a mouse SR effect class: 10 μM (3 μM for 12b per Figure 6c), microsomal membrane vesicles; for SERCA2a ATPase activity in mouse SR vesicles (in words): 10 μM, vs 0.1 v/v% DMSO
T2 construct: host or cells: HL-1 cells
Excerpt: Cyclopropanol derivatives have a variety of biological activities including enzyme inhibition and antibacterial and anticancer properties.[47]−[50] However, there have been no published reports on cyclopropanol-containing molecules specifically acting as modulators of RyRs and/or activators of SERCA. To investigate more directly whether the compounds influence the SERCA2 activity, we performed nicotinamide adenine dinucleotide (NADH) fluorescence-coupled ATPase assay according to Radnai et al.[51] In this assay, the change in NADH coenzyme fluorescence reflects the level of the consumption of ATP, which we took as indicator of SERCA2 activity.[51],[52] ATP hydrolysis by SERCA2 is required to pump calcium ions into the SR. We assume that a higher rate of ATP hydrolysis reflects an increase in SERCA2 ATPase activity that leads to a greater pumping of calcium ions into the SR.
We observed the rate of NADH oxidation, which is coupled to ATP hydrolysis, by measuring changes in NADH intrinsic fluorescence over time after ATP injection into microsomal membranes enriched in SR vesicles isolated from mouse heart ventricles (mouse SR) and HEK-293T cells (HEK-293 ER). The presence of SERCA2 in mouse SR and HEK-293 ER of isolated microsomal vesicles was confirmed by Western blotting (Figures S5 and S6; for details see Experimental Section). The NADH fluorescence decrease was recorded on a multiwell plate reader TECAN Spark 20M (λex = 380 nm, λem = 470 nm). […] Consistent with our previous experiment on HL-1 cells, we observed a strong decrease in NADH fluorescence reflecting an increase in SERCA2a activity in SR microsomes derived from mouse heart ventricles (n = 3–5) in solutions containing the tested compounds compared to the 0.1 v/v% DMSO sample (Figure 6). […] Similar results were obtained in cardiac SR vesicles from the mouse heart. […] This difference may indicate isoform-specific effects of our compound in HEK-293 cells expressing mostly SERCA2b[53] versus mouse SR vesicles containing mostly SERCA2a.[54] In both experiments, we used CDN1163 as a positive control.
All animal procedures were performed in accordance with Directive 2010/63/EU of the European Parliament and the Council on the protection of animals used in research as well as Animal Welfare Law of the Federal Republic of Germany (Tierschutzgesetz der Bundesrepublik Deutschland, TierSchG). […] All mice were housed with a 12 h light/dark cycle with free access to food and water. Adult C57BL/6N mice of both genders were sedated with isoflurane in a sealed container and quickly euthanized by cervical dislocation. Heart ventricles were taken out instantly, washed with ice-cold PBS plus complete, cut into smaller pieces, and snap frozen in liquid nitrogen straight away.
Lysis buffer thawed on ice (10 mM EDTA, 10 mM HEPES, cOmplete, pH 7.4) was added, and the ventricles were homogenized with a Qiagen Cellruptor for 20 s. On ice, an equal volume of restoration buffer (500 mM sucrose, 10 mM HEPES, cOmplete, pH7.2) was added and briefly mixed. The homogenate was centrifuged at 10^4 × g for 20 min at 4 °C. The supernatant was collected and centrifuged again for another hour (10^5 × g at 4 °C). Then, the pellet was carefully resuspended in resuspension buffer (250 mM sucrose, 10 mM HEPES, cOmplete, pH 7.2) on ice by pipetting the solution up and down until fully dissolved. The obtained solution was diluted to a protein concentration of 5 μg/μL with the resuspension buffer, and the aliquots were snap frozen in liquid nitrogen and then stored at −80 °C until usage.
To determine whether new compounds could increase the SERCA2 activity, HEK-293 microsomes (40–150 μg of total protein) or mouse ventricular microsomes (1–20 μg of total protein) were diluted in 100 μL of the assay buffer used for measurement of SERCA activity (described below) and incubated at room temperature for 5 min prior to the experiments. […]

[1] = CytoTox-Glo Cytotoxicity Assay; assay type: cell-based; conditions: mouse; HL-1 cells, 100 μM solutions, 24 h incubation
Protocol: Cell viability was assessed using the CytoTox-Glo Cytotoxicity Assay according to the manufacturing procedure (Promega GmbH). Briefly, HL-1 cells were cultivated for 24 h in black-walled, clear-bottom 96-well microplates (Corning) covered with fibronectin in DMEM, containing different concentrations of the tested compound (10,000 cells/well). Luminescence of a luminogenic peptide substrate was measured before and after the addition of the lysis reagent (digitonin). The viable cell contribution was determined by a subtractive method. 0.1% DMSO-treated cells were taken as a control.

| SMILES | RyR2 effect class (RyR2) | EC50 (RyR2) [nM] | SERCA2a mouse SR effect class (SERCA2a) | effect on [Ca2+]ER / R-CEPIA1er fluorescence (F/F0) (RyR2) | SERCA2a ATPase activity in mouse SR vesicles (in words) (SERCA2a) | EC50 (SERCA2a; ATPase activity, value, interval) [nM] | viability at 24 h, 100 μM [1] [%] | dose response of F/F0 ([Ca2+]ER) (RyR2; concentration range 10^–11 to 10^–4 M) |
| --- | --- | --- | --- | --- | --- | --- | --- | --- |
| COc1ccc(SCCCNCCCCC2(O)CC2)cc1 [11c, 1-(4-((3-((4-Methoxyphenyl)thio)propyl)amino)butyl)cyclopropan-1-ol] | ++ | 10.2 | +++ | – | – | – | 73 | – |
| COc1ccc(OCCCNCCCCC2(O)CC2)cc1 [11b, 1-(4-((3-(4-Methoxyphenoxy)propyl)amino)butyl)cyclopropan-1-ol] | +++ | 81.5 | + | – | – | – | 100 | – |
| COc1ccc2c(c1)CN(CCCCC1(O)CC1)CCS2 [11d, 1-(4-(7-Methoxy-2,3-dihydrobenzo[1,4-f]thiazepin-4(5H)-yl)butyl)cyclopropan-1-ol] | – | – | ++ | no significant RyR2-stabilizing effect | moderate | – | 95 | – |
| COc1ccc2c(c1)CN(CCCCNCCCCC1(O)CC1)CCS2 [11a, 1-(4-((4-(7-Methoxy-2,3-dihydrobenzo[1,4-f]thiazepin-4(5H)-yl)butyl)amino)butyl)cyclopropan-1-ol] | ++ | – | + | – | – | – | 84 | – |

Continued, in another order:

| RyR2 effect class (RyR2) | EC50 (RyR2) [nM] | SERCA2a mouse SR effect class (SERCA2a) | effect on [Ca2+]ER / R-CEPIA1er fluorescence (F/F0) (RyR2) | SERCA2a ATPase activity in mouse SR vesicles (in words) (SERCA2a) | EC50 (SERCA2a; ATPase activity, value, interval) [nM] | SMILES | viability at 24 h, 100 μM [1] [%] | dose response of F/F0 ([Ca2+]ER) (RyR2; concentration range 10^–11 to 10^–4 M) |
| --- | --- | --- | --- | --- | --- | --- | --- | --- |
| + | 18.6 | + | – | – | – | COc1ccc(SCCCN(CCCCC2(O)CC2)CCCCC2(O)CC2)cc1 [12c, 1,1′-(((3-((4-Methoxyphenyl)thio)propyl)azanediyl)bis(butane-4,1-diyl))bis(cyclopropan-1-ol)] | 90 | – |
| ++ | – | ++ | significantly increased [Ca^2+]ER | improvement of ATPase activity | – | COc1ccc2c(c1)CN(Cc1ccc(C(=O)O)cc1)CCS2 [ARM210, reference compound] | 90 | – |
| +++ | – | +++ | – | – | 383 | COc1ccc2c(c1)CN(CCCCN(CCCCC1(O)CC1)CCCCC1(O)CC1)CCS2 [12a, 1,1′-(((4-(7-Methoxy-2,3-dihydrobenzo[1,4-f]thiazepin-4(5H)-yl)butyl)azanediyl)bis(butane-4,1-diyl))bis(cyclopropan-1-ol)] | 80 | most pronounced effect of all of the other compounds |
